Data taken from article PMC4644822, “Extracellular α-Galactosidase from Trichoderma sp. (WF-3): Optimization of Enzyme Production and Biochemical Characterization” (Biotechnology Research International, 2015).

Test system: T1, extracellular α-galactosidase from Trichoderma sp. (WF-3)
T1 construct: gene agl1; native secreted enzyme, unpurified culture filtrate
Experiment: p-nitrophenol release at […] nm, Lineweaver-Burk plot
Format: biochemical
Conditions: culture filtrate (unpurified); standard assay 0.05 M sodium acetate pH 5.0, 50 °C, 10 min; 0.05-4.5 mM substrate; read-out: apparent K m

- Km: 500 µM
SMILES: O=[N+]([O-])c1ccc(O[C@H]2O[C@H](CO)[C@H](O)[C@H](O)[C@H]2O)cc1 [pNPGal, p-nitrophenyl-α-D-galactopyranoside]
